Measurements taken from ChEMBL document CHEMBL1121815, “Chemically reactive estrogens: synthesis and estrogen receptor interactions of hexestrol ether derivatives and 4-substituted deoxyhexestrol derivatives bearing alkylating functions” (J Med Chem, 1981).

Columns and labels:
[1] = Half life was determined; format: ADME; conditions: rat
[2] = target: T1, Estrogen receptor (Ovis aries) (UniProt P49885+Q9TU15); assay: Binding affinity against estrogen receptor in lamb uterine cytosol, relative to that of [3H]estradiol; format: protein assay
[3] = target: T1, Estrogen receptor (Ovis aries); assay: Inactivation of lamb uterine estrogen receptor; format: protein assay; set-up: concentration or dose not given beside the values

half-life [1] [min] | Binding affinity [2] [%] | Inactivation [3] [%] | Structure (SMILES)
150 | 9.3 | 70 | CC[C@H](c1ccc(O)cc1)[C@@H](CC)c1ccc(CBr)cc1
 | 40 |  | CC[C@H](c1ccc(O)cc1)[C@@H](CC)c1ccc(CO)cc1
 | 5.2 |  | CC[C@H](c1ccc(O)cc1)[C@@H](CC)c1ccc(C#N)cc1
 | 4.1 |  | CC[C@H](c1ccc(O)cc1)[C@@H](CC)c1ccc(C(C)=O)cc1
 | 4.9 |  | CCOCc1ccc([C@H](CC)[C@H](CC)c2ccc(O)cc2)cc1
 | 17 |  | CCC(c1ccc(O)cc1)C(CC)c1ccc(OC)cc1 (stereo not drawn)
 | 21 |  | CC[C@H](c1ccc(O)cc1)[C@@H](CC)c1ccc(OCCO)cc1
 | 1.8 |  | CC[C@H](c1ccc(O)cc1)[C@@H](CC)c1ccc(C(=O)O)cc1
30 | 0.44 | 29 | CC[C@H](c1ccc(O)cc1)[C@@H](CC)c1ccc(C(=O)CCl)cc1
< 30 | 1.1 | 44 | CC[C@H](c1ccc(O)cc1)[C@@H](CC)c1ccc(C(=O)CBr)cc1
 | 19 |  | CC[C@H](c1ccc(O)cc1)[C@@H](CC)c1ccc(OC)cc1
78 | 8 | 63 | CC[C@H](c1ccc(O)cc1)[C@@H](CC)c1ccc(CCl)cc1
 | 95 |  | CC[C@H](c1ccc(O)cc1)[C@@H](CC)c1ccc(N)cc1

Further lines, the compound ahead of its results:

Structure (SMILES) | half-life [1] [min] | Binding affinity [2] [%] | Inactivation [3] [%]
CC[C@H](c1ccc(O)cc1)[C@@H](CC)c1ccc(S(=O)(=O)F)cc1 | 60 | 0.33 | 24
CC[C@H](c1ccc(O)cc1)[C@@H](CC)c1ccc(OCC(=O)CBr)cc1 | < 30 | 9.5 | 24
C=CCOc1ccc([C@H](CC)[C@H](CC)c2ccc(O)cc2)cc1 |  | 5.4 | 
CC[C@H](c1ccc(O)c(CCCO)c1)[C@@H](CC)c1ccc(O)cc1 |  | 12 | 
CC[C@H](c1ccc(O)cc1)[C@@H](CC)c1ccc(OCC(=O)O)cc1 |  | 0.12 | 
CC[C@H](c1ccc(O)cc1)[C@@H](CC)c1ccc([N+](=O)[O-])cc1 |  | 11 | 
CC[C@H](c1ccc(O)cc1)[C@@H](CC)c1ccc(OCC(C)O)cc1 (stereo partly drawn) |  | 4.3 | 
CC[C@H](c1ccc(O)cc1)[C@@H](CC)c1ccc(N=[N+]=[N-])cc1 |  | 5.7 | 
CC[C@H](c1ccc(O)cc1)[C@@H](CC)c1ccc(OCC(O)CBr)cc1 (stereo partly drawn) | 30 | 3.2 | 36
CC[C@H](c1ccc(O)cc1)[C@@H](CC)c1ccc(OCCOCCCl)cc1 |  | 0.9 | 
CCOC(=O)COc1ccc([C@H](CC)[C@H](CC)c2ccc(O)cc2)cc1 |  | 2.2 | 
CC[C@H](c1ccc(O)cc1)[C@@H](CC)c1ccc(OCC2CO2)cc1 (stereo partly drawn) | 240 | 7.4 | 44
CC[C@H](c1ccc(O)cc1)[C@@H](CC)c1ccc(OCC(C)=O)cc1 |  | 11 | 
CC[C@H](c1ccc(O)cc1)[C@@H](CC)c1ccc(OCC(=O)C=[N+]=[N-])cc1 |  | 2 | 
CC[C@H](c1ccc(O)cc1)[C@@H](CC)c1ccc(OCC(O)CCl)cc1 (stereo partly drawn) | 30 | 4 | 24
CC[C@H](c1ccc(O)cc1)[C@@H](CC)c1ccc(S(=O)(=O)N=[N+]=[N-])cc1 |  | 1.8 | 
CC[C@H](c1ccc(O)cc1)[C@@H](CC)c1ccc(OCC(O)CO)cc1 (stereo partly drawn) |  | 6.9 | 
CCOC(=N)c1ccc([C@H](CC)[C@H](CC)c2ccc(O)cc2)cc1 |  | 1.9 | 
C=CCc1cc([C@@H](CC)[C@@H](CC)c2ccc(O)cc2)ccc1O |  | 54 | 
CC[C@H](c1ccc(O)cc1)[C@@H](CC)c1ccc(OCC(=O)CCl)cc1 | 15 | 10 | 31
